Results: patent publication US10939684B2, “Preparation of sulfonamide-containing antimicrobials and substrate treating compositions of sulfonamide-containing antimicrobials” (NANO SAFE COATINGS INCORPORATED, priority 2015, dated 2021)
Entries after “also recorded” stand apart in the source; their conditions may differ.

Legend:
Format in all cases: cell-based
[1] = test system: Arthrobacter spp. biofilm cells; assay: Static biofilm test in coated polyethylene test tubes, biofilm cell survival; details: for Average / A (cfu) / B (cfu) / C (cfu): biofilm cells, 48 hours; for Average: average of A-C; for A (cfu): replicate A; for B (cfu): replicate B; for C (cfu): replicate C
Description: (§1) The interior of polyethylene test tubes was coated with the sulfonamide QUAT antimicrobial similarly as in Example 32. Tubes were filled with 2.7 mL of growth media (3 g/L TSB) into which 300 μL of Arthrobacter spp. bacterial culture was inoculated. Planktonic cells were sampled after 48 hours of incubation and agitation by removing 100 μL aliquots from each tube. After 48 hours, the liquid in each tube was removed completely so that biofilm attachment to the interior of the tubes could be assessed. To test for biofilm attachment the tubes were first gently rinsed in a saline solution to remove any loosely attached or residual planktonic cells. Next, 1 mL of saline solution was added to each tube before the tubes were vortexed vigorously for 1 minute to transfer biofilm cells to the collection liquid. Plate counts were then performed on serial dilutions of this collection liquid. Planktonic and biofilm colony counts from triplicate coated tubes were averaged and compared to colony counts from tests of uncoated control tubes carried out in parallel. After 14 days of exposure to ambient air, the tubes used in the above test were subjected to a second static biofilm test as described above, without reapplying the antimicrobial. This test was performed to determine whether the antimicrobial effects of the coating persisted following repeated exposures.

[2] = test system: Arthrobacter spp. planktonic cells; assay: Static biofilm test in coated polyethylene test tubes, planktonic cell survival; details: 48 hours; for Average / A (cfu) / B (cfu) / C (cfu): planktonic cells; for Average: average of A-C; for A (cfu): replicate A; for B (cfu): replicate B; for C (cfu): replicate C; for activity against planktonic cells (in words): initial test and re-challenge (FIG. 9)
Description: as §1

[3] = test system: Escherichia coli (E. coli); assay: Large-droplet inoculation method, antimicrobial efficacy at solid-air interfaces; details: for Average / A (cfu) / B (cfu) / C (cfu): E. coli, treated polyethylene, load 5.05E+07; for Average: average of A-C; for A (cfu): replicate A; for B (cfu): replicate B; for C (cfu): replicate C; for activity against E. coli (in words): treated polyethylene coupons, compared to untreated control (FIG. 6)
Description: (§2) Large-droplet inoculation method (Ronan E. et al, Biofouling 2013, 29, 1087-1096) Many pathogens are able to remain viable during extended periods of desiccation on inanimate surfaces. Long-term survival of pathogens in the inanimate environment pose a significant risk for infection transmission and contamination in high-risk environments such as hospital rooms or food-processing plants. The large-droplet inoculation method was developed to simulate the deposition of bacterial species onto exposed surfaces and to determine the ability of these cells to survive desiccation.
(§3) For these tests, small surface coupons were first coated with the antimicrobial using the method described above. Bacterial test species were grown overnight in a shaking incubator and cultures
(§4) were washed twice to replace the growth media with sterile water. 100 μL aliquots of the prepared culture were then inoculated onto multiple coated surfaces and allowed to air-dry within a biological safety cabinet. Drying typically occurred 2-3 hours after inoculation, and surviving cells were enumerated immediately and 24 hours after drying. For enumeration, inoculated coupons were sacrificed in triplicate and placed inside separate tubes containing 5 mL of a 0.9% saline collection liquid. Each coupon was agitated vigorously for 1 minute with a bench-top vortex to transfer cells from the test surface to the collection liquid. Plate counts were then performed on serial dilutions of the collection liquid, and colony counts from triplicate treated surfaces were averaged and compared to colony counts from tests of untreated control surfaces carried out in parallel.
(§5) A range of bacterial species were used in these tests. Arthrobacter spp., a gram-positive lab strain originally isolated from indoor air was used in the bulk of the testing, as it is known to be highly resistant to desiccation and therefore was used as a model for desiccation-tolerant pathogens. Efficacy tests were also carried out against, for example, gram-negative Escherichia coli (E. coli) and gram-positive Staphylococcus aureus (S. aureus), since they all contain pathogenic strains and have been implicated in major nosocomial outbreaks. […] The following are the tabulated bacterial reduction data: […]

Arthrobacter spp. = assay: as above; details: for Average: average of A-C; for A (cfu): replicate A; for B (cfu): replicate B; for C (cfu): replicate C
Description: as §2, §3, §4, §5

[4] = test system: Staphylococcus aureus (S. aureus); assay: as above; details: for Average / A (cfu) / B (cfu) / C (cfu): S. aureus, treated polyethylene, load 8.30E+05; for Average: average of A-C; for A (cfu): replicate A; for B (cfu): replicate B; for C (cfu): replicate C; for activity against S. aureus (in words): treated polyethylene coupons, compared to untreated control (FIG. 6)
Description: as §2, §3, §4, §5

[5] = initial test, treated polyethylene test tubes, load 7.75E+08
[6] = rechallenge after 14 days without reapplying, load 8.00E+08
[7] = listed as 3-(4-benzoylphenoxy)-N,N-dimethyl-N-(3-(2,4,6-trimethylphenyl sulfonamido)propyl)
[8] = listed as 3-(4-benzoylphenoxy)-N,N-dimethyl-N-(3-(2,4,6-trimethylphenylsulfonamido)propyl)
[9] = treated polystyrene, 3 hours, load 1.28E+08
[10] = treated polystyrene, 24 hours, load 1.28E+08
[11] = treated polyethylene, 3 hours, load 2.70E+07
[12] = treated polyethylene, 24 hours, load 2.70E+07

Cc1cc(C)c(S(=O)(=O)NCCC[N+](C)(C)CCCOc2ccc(C(=O)c3ccccc3)cc2)c(C)c1.[Br-] [Example 3c, 3-(4-benzoylphenoxy)-N,N-dimethyl-N-(3-(2,4,6-trimethylphenylsulfonamido)propyl)propan-1-aminium bromide]
Average [1, 5]: 0.00E+00 cfu | A (cfu) [1, 5]: 0.00E+00 cfu | B (cfu) [1, 5]: 0.00E+00 cfu | C (cfu) [1, 5]: 0.00E+00 cfu | Average [1, 6]: 0.00E+00 cfu | A (cfu) [1, 6]: 0.00E+00 cfu | B (cfu) [1, 6]: 0.00E+00 cfu | C (cfu) [1, 6]: 0.00E+00 cfu | activity against biofilm cells / biofilm development (in words) ([1]; treated polyethylene test tubes, 48 hours (FIG. 10)): excellent activity | Average [2, 5]: 0.00E+00 cfu | A (cfu) [2, 5]: 0.00E+00 cfu | B (cfu) [2, 5]: 0.00E+00 cfu | C (cfu) [2, 5]: 0.00E+00 cfu | Average [2, 6]: 0.00E+00 cfu | A (cfu) [2, 6]: 0.00E+00 cfu | B (cfu) [2, 6]: 0.00E+00 cfu | C (cfu) [2, 6]: 0.00E+00 cfu | activity against planktonic cells (in words) ([2]; treated polyethylene test tubes, listed as 3-(4-benzoylphenoxy)-N,N-dimethyl-N-(3-(2,4,6-trimethylphenyl sulfonamido)propyl)): excellent activity | activity against planktonic cells (in words) ([2]; treated polyethylene test tubes, listed as 3-(4-benzoylphenoxy)-N,N-dimethyl-N-(3-(2,4,6-trimethylphenylsulfonamido)propyl)): complete eradication | Average ([3]; 3 hours): 0.00E+00 cfu | A (cfu) ([3]; 3 hours): 0.00E+00 cfu | B (cfu) ([3]; 3 hours): 0.00E+00 cfu | C (cfu) ([3]; 3 hours): 0.00E+00 cfu | Average ([3]; 24 hours): 0.00E+00 cfu | A (cfu) ([3]; 24 hours): 0.00E+00 cfu | B (cfu) ([3]; 24 hours): 0.00E+00 cfu | C (cfu) ([3]; 24 hours): 0.00E+00 cfu | activity against E. coli (in words) [3, 7]: excellent activity | activity against E. coli (in words) [3, 8]: eradicated within three hours | activity against Arthrobacter spp. (in words) (Arthrobacter spp.; treated polystyrene, compared to untreated control (FIG. 3)): eradicated within three hours; also recorded: excellent activity | Average (Arthrobacter spp.; [9]): 0.00E+00 cfu | A (cfu) (Arthrobacter spp.; [9]): 0.00E+00 cfu | B (cfu) (Arthrobacter spp.; [9]): 0.00E+00 cfu | C (cfu) (Arthrobacter spp.; [9]): 0.00E+00 cfu | Average (Arthrobacter spp.; [10]): 0.00E+00 cfu | A (cfu) (Arthrobacter spp.; [10]): 0.00E+00 cfu | B (cfu) (Arthrobacter spp.; [10]): 0.00E+00 cfu | C (cfu) (Arthrobacter spp.; [10]): 0.00E+00 cfu | Average ([4]; 3 hours): 0.00E+00 cfu | A (cfu) ([4]; 3 hours): 0.00E+00 cfu | B (cfu) ([4]; 3 hours): 0.00E+00 cfu | C (cfu) ([4]; 3 hours): 0.00E+00 cfu | Average ([4]; 24 hours): 0.00E+00 cfu | A (cfu) ([4]; 24 hours): 0.00E+00 cfu | B (cfu) ([4]; 24 hours): 0.00E+00 cfu | C (cfu) ([4]; 24 hours): 0.00E+00 cfu | activity against S. aureus (in words) [4, 7]: excellent activity | activity against S. aureus (in words) [4, 8]: eradicated within three hours

C[N+](C)(CCCNS(=O)(=O)c1cccc2ccccc12)CCCOc1ccc(C(=O)c2ccccc2)cc1.[Br-] [Example 5c, 3-(4-benzoylphenoxy)-N,N-dimethyl-N-(3-(naphthalene-1-sulfonamido)propyl)propan-1-aminium bromide]
activity against Arthrobacter spp. (in words) (Arthrobacter spp.; treated polyethylene coupons, compared to untreated control (FIG. 5), listed as 3-(4-benzoylphenoxy)-N,N-dimethyl-N-(3-(naphthalene-1-sulfonamido)propyl)propan-): eradicated within three hours | Average (Arthrobacter spp.; [11]): 0.00E+00 cfu | A (cfu) (Arthrobacter spp.; [11]): 0.00E+00 cfu | B (cfu) (Arthrobacter spp.; [11]): 0.00E+00 cfu | C (cfu) (Arthrobacter spp.; [11]): 0.00E+00 cfu | Average (Arthrobacter spp.; [12]): 0.00E+00 cfu | A (cfu) (Arthrobacter spp.; [12]): 0.00E+00 cfu | B (cfu) (Arthrobacter spp.; [12]): 0.00E+00 cfu | C (cfu) (Arthrobacter spp.; [12]): 0.00E+00 cfu
